{
  "source": "paper PMC5469750",
  "about": "“Antibacterial and detoxifying activity of NZ17074 analogues with multi-layers of selective antimicrobial actions against Escherichia coli and Salmonella enteritidis” (Scientific Reports, 2017)",
  "key": {"S. enteritidis CICC22956": {"system": "S. enteritidis CICC22956", "experiment": "S. enteritidis-induced peritonitis model, survival", "format": "in vivo, ICR mice", "settings": "7 days, six mice per group", "description": "(§1) Mice injected with only bacteria or saline served as negative (untreated) or blank (unchallenged) controls, respectively. Survival of mice was recorded every 12 h and followed for 7 days."}, "[1]": {"experiment": "Calcein leakage from model eukaryotic membranes", "format": "biochemical", "settings": "POPC/cholesterol = 1:1 LUVs (500 μM lipid), 64 to 256 μg/ml, 5 min; 100% = 1% Triton X-100; n = 3", "description": "Different lipids (Avanti Polar Linpids, Inc.) were used to prepare model membranes composed of POPC/ POPG (4:1 molar ratio) and POPC/cholesterol (1:1) by the extrusion method as previously described. POPC/POPG and POPC/cholesterol LUVs were used to mimic gram-negative bacterial and eukaryotic membranes, respectively. […] After incubation for 5 min, the fluorescence (F) (λexcitation = 492 nm, λemission = 518 nm) was measured on a microplate reader."}, "E. coli CVCC1515": {"system": "E. coli CVCC1515", "experiment": "E. coli-induced peritonitis model, survival", "format": "in vivo, ICR mice", "settings": "7 days, six mice per group", "description": "as §1"}, "[2]": {"experiment": "LPS binding, BODIPY-TR-cadaverine (BC) displacement", "settings": "100 μM; 40 μg/ml LPS and 10 μM BC in 50 mM Tris buffer pH 7.4, 1 h, room temperature", "description": "Equal volumes of 40 μg/ml LPS and 10 μM BC in 50 mM Tris buffer (pH 7.4) were mixed, added into 96-well plates and incubated in the dark for 4 h at room temperature. […] Fluorescence was then measured using a microplate reader (excitation/emission, 580/620 nm). The occupancy rate was calculated by the following equation: BC displacement rate (%) = (1 − (F0 − F)/(F0 − Fmax)) × 100, wherein F0 is the fluorescence intensity of the solution of BC alone; Fmax is the fluorescence intensity in the presence of LPS at the saturation concentration, and F is the intensity of LPS:BC mixtures at varying displacer concentrations."}, "E. coli 0111:B4 LPS": {"system": "E. coli 0111:B4 LPS", "experiment": "LPS-induced endotoxemia model, survival", "format": "in vivo, C57BL/6 mice", "settings": "7 days, six mice per group", "description": "Eight-week-old SPF male C57BL/6 mice (20 g ± 5 g, six mice per group) were injected intraperitoneally with E. coli 0111:B4 LPS (30 mg/kg body weight, Sigma). […] Mice injected with PBS were used as the negative control. The mouse survival rate was recorded for 7 days."}, "TNF-α": {"system": "TNF-α", "experiment": "LPS-induced cytokine release, serum ELISA", "format": "in vivo, C57BL/6 mice", "settings": "15 mg/kg intraperitoneal 0.5 h after 10 mg/kg LPS; LPS control 394.9; mean, n = 3 per group", "description": "(§2) Blood was collected in a heparin sodium tube at 2 h or 8 h after LPS injection and incubated for 30 min at 37 °C and then overnight at 4 °C. After centrifugation at 3,000 rpm for 10 min at 4 °C, serum was collected from supernatant. The cytokine levels of TNF-α, IL-6 and IL-1β were detected by the Jiaxuan Biotech. Co. Ltd. (Beijing, China) using an enzyme linked immunosorbent assay (ELISA)."}, "IL-1β": {"system": "IL-1β", "experiment": "LPS-induced cytokine release, serum ELISA", "format": "in vivo, C57BL/6 mice", "settings": "15 mg/kg intraperitoneal 0.5 h after 10 mg/kg LPS; LPS control 292.9; mean, n = 3 per group", "description": "as §2"}, "IL-6": {"system": "IL-6", "experiment": "LPS-induced cytokine release, serum ELISA", "format": "in vivo, C57BL/6 mice", "settings": "15 mg/kg intraperitoneal 0.5 h after 10 mg/kg LPS; LPS control 1026.8; mean, n = 3 per group", "description": "as §2"}},
  "data": [
    {"substance": "polymyxin B [PMB]", "values": [
      {"measurement": "survival rate", "setting": "S. enteritidis CICC22956; 0.31 mg/kg intraperitoneal at 0.5 h and 8 h after challenge", "value": 83.3, "unit": "%"},
      {"measurement": "survival rate", "setting": "S. enteritidis CICC22956; 0.625 mg/kg intraperitoneal at 0.5 h and 8 h after challenge", "value": 100, "unit": "%"},
      {"measurement": "calcein dye leakage", "setting": "[1]", "value": "12.3–51.0%"},
      {"measurement": "survival rate", "setting": "E. coli CVCC1515; 0.31 mg/kg intraperitoneal at 0.5 and 8 h after inoculation", "value": 66.7, "unit": "%"},
      {"measurement": "survival rate", "setting": "E. coli CVCC1515; 0.625 mg/kg intraperitoneal at 0.5 and 8 h after inoculation", "value": 100, "unit": "%"},
      {"measurement": "BC displacement percentage", "setting": "[2]", "value": 89.3, "unit": "%"},
      {"measurement": "survival rate", "setting": "E. coli 0111:B4 LPS; 10 mg/kg intraperitoneal at 0.5 h and 8 h after LPS (30 mg/kg)", "value": 16.7, "unit": "%"},
      {"measurement": "survival rate", "setting": "E. coli 0111:B4 LPS; 15 mg/kg intraperitoneal at 0.5 h and 8 h after LPS (30 mg/kg)", "value": 100, "unit": "%"},
      {"measurement": "serum level of TNF-α", "setting": "TNF-α", "value": 74.0, "unit": "pg/mL"},
      {"measurement": "serum level of IL-1β", "setting": "IL-1β", "value": 242.8, "unit": "pg/mL"},
      {"measurement": "serum level of IL-6", "setting": "IL-6", "value": 514.9, "unit": "pg/mL"}
    ]}
  ]
}
